In the Kinase Knowledgebase extract (Sharma et al. 2016):

The compounds below were run against MAPK14 (UniProt Q16539) (assay: CSBP Binding Inhibition).
Chain of MAPK14 (Q16539 whole entry, looked up): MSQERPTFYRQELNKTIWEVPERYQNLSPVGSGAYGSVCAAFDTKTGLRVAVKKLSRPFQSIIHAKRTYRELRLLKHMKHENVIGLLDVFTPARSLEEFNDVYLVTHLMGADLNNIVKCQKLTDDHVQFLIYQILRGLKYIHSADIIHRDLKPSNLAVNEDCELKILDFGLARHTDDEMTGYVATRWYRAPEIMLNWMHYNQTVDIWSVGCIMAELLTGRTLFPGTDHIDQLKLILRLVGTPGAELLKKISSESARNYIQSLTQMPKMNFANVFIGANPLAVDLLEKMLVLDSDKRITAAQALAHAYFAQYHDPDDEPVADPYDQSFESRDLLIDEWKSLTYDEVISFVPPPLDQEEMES

IC50, < 50 µM:
COc1nccc(-c2c(-c3ccc(F)cc3)ncn2C2CCC(=O)CC2)n1, O=C1CCC(n2cnc(-c3ccc(F)cc3)c2-c2ccnc(O)n2)CC1, CSc1nccc(-c2c(-c3ccc(F)cc3)ncn2C2CCC(=O)CC2)n1, COc1nccc(-c2c(-c3ccc(F)cc3)ncn2[C@H]2CC[C@@](C)(O)CC2)n1.COc1nccc(-c2c(-c3ccc(F)cc3)ncn2[C@H]2CC[C@](C)(O)CC2)n1, CSc1nccc(-c2c(-c3ccc(F)cc3)ncn2[C@H]2CC[C@H](O)CC2)n1, CC(C)Oc1nccc(-c2c(-c3ccc(F)cc3)ncn2C2CCC(O)CC2)n1 (stereo not given), CC(C)Oc1nccc(-c2c(-c3ccc(F)cc3)ncn2C2CCC(=O)CC2)n1

Each compound was assayed against MAPK14 (UniProt Q16539) (assay: CSBP Kinase Inhibition).

IC50, < 50 µM:
COc1nccc(-c2c(-c3ccc(F)cc3)ncn2[C@H]2CC[C@H](OC3CCCCO3)CC2)n1 (stereo not given in full), COc1nccc(-c2c(-c3ccc(F)cc3)ncn2[C@H]2CC[C@](C)(O)CC2)n1, COc1nccc(-c2c(-c3ccc(F)cc3)ncn2[C@H]2CC[C@H](N)CC2)n1, COc1nccc(-c2c(-c3ccc(F)cc3)ncn2[C@H]2CC[C@@](O)(CO)CC2)n1.COc1nccc(-c2c(-c3ccc(F)cc3)ncn2[C@H]2CC[C@](O)(CO)CC2)n1, Oc1nccc(-c2c(-c3ccc(F)cc3)ncn2C2CCC(O)CC2)n1 (stereo not given), CCCC(=O)O[C@H]1CC[C@H](n2cnc(-c3ccc(F)cc3)c2-c2ccnc(OC)n2)CC1, COc1nccc(-c2c(-c3ccc(F)cc3)ncn2[C@H]2CC[C@@H](N)CC2)n1, COc1nccc(-c2c(-c3ccc(F)cc3)ncn2[C@H]2CC[C@@](C)(O)CC2)n1
